How the values were obtained:
Test in all cases: [3H]InsP3 radioligand displacement on purified recombinant protein, Scatchard analysis
[1] = molecular target: T1, human type-I InsP 3 receptor ligand binding domain (InsP3R-LBD) (Homo sapiens, UniProt Q14643)
T1 construct: gene ITPR1; residues 224-605, mRFP- and 6xHis-tagged

[2] = molecular target: T2, human type-I InsP 3 receptor ligand binding domain (InsP3R-LBD) (Homo sapiens, UniProt Q14643, R269K)
T2 construct: gene ITPR1; residues 224-605, mRFP- and 6xHis-tagged

[3] = molecular target: T3, human type-I InsP 3 receptor ligand binding domain (InsP3R-LBD) (Homo sapiens, UniProt Q14643, R568K)
T3 construct: gene ITPR1; residues 224-605, mRFP- and 6xHis-tagged

[4] = molecular target: T4, human type-I InsP 3 receptor ligand binding domain (InsP3R-LBD) (Homo sapiens, UniProt Q14643, R265K)
T4 construct: gene ITPR1; residues 224-605, mRFP- and 6xHis-tagged
T4 sequence (Q14643 224-605 R265K): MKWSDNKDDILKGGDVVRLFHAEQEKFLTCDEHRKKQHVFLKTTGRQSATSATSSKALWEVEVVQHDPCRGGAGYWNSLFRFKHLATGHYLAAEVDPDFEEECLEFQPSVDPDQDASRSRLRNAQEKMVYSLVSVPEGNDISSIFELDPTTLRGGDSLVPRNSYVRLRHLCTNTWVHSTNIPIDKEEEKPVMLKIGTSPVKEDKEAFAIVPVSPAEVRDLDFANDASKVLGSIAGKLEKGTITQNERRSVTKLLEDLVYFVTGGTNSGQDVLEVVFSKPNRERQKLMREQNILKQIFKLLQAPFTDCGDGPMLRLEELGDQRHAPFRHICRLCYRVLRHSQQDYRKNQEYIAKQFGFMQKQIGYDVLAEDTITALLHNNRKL

T2 sequence (Q14643 224-605 R269K): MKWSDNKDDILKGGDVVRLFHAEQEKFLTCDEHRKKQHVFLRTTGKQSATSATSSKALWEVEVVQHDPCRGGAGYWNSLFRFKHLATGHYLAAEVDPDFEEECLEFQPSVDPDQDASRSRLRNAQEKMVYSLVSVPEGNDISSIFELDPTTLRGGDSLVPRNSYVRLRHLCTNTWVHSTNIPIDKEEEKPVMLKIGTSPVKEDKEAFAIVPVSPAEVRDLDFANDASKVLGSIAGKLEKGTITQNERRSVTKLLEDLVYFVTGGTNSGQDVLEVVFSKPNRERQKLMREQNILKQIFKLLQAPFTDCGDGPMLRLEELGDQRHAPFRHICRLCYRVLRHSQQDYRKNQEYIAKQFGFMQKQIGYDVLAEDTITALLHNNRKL
T3 sequence (Q14643 224-605 R568K): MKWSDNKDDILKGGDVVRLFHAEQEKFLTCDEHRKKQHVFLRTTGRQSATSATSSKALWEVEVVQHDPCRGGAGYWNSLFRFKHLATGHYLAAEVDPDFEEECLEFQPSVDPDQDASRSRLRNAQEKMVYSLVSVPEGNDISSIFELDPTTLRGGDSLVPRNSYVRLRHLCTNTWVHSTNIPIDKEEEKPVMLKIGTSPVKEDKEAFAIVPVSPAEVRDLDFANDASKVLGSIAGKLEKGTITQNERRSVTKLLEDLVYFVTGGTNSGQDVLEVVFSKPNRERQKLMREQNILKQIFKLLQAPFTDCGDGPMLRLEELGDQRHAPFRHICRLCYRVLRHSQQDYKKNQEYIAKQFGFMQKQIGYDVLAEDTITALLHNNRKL
T1 sequence (Q14643 224-605): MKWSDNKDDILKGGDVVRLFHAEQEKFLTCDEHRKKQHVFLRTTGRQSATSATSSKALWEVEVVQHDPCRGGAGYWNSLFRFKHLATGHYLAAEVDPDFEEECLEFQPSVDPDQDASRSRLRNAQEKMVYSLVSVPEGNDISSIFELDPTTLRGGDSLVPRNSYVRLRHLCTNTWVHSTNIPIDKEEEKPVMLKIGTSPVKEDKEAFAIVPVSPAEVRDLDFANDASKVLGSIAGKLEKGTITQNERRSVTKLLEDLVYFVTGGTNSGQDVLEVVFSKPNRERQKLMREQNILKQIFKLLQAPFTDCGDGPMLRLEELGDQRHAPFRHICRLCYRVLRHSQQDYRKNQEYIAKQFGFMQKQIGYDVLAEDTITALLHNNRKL

Kd [1]: 3.04 nM
Kd [2]: 10.1 nM
Kd [3]: 5.3 nM
Kd [4]: 6.06 nM
Compound: O=P(O)(O)O[C@@H]1[C@H](O)[C@H](O)[C@@H](OP(=O)(O)O)[C@H](OP(=O)(O)O)[C@H]1O [InsP 3]
